Reference: paper PMC11173508, “Pharmacokinetics and Tissue Distribution of Itampolin A following Intragastric and Intravenous Administration in Rats Using Ultra-High-Performance Liquid Chromatography–Tandem Mass Spectrometry” (Molecules, 2024)
Read-outs that look alike come from different tables or passages of the source.

Tests used:
[1] = Pharmacokinetic study in rats after intragastric and intravenous administration (UHPLC-MS/MS of plasma); format: in vivo, Sprague–Dawley rats; conditions: for MRT inf: n = 6, read-out: MRT0–∞; for k el: n = 6, read-out: ke (converted); for bioavailability: F = Doseiv × AUCig/(Doseig × AUCiv) × 100%, read-out: absolute bioavailability (F)
Description: (§1) Sprague–Dawley rats (250 ± 20 g) were supplied from the Experimental Animal Centre of China Medical University (Shenyang, China) and housed under unified conditions. All of the animal experiments were conducted in compliance with the Guidelines for Care and Use of Laboratory Animals of China Medical University and the protocols were approved by the Animal Ethics Committee of the institution (code number: CMU2023205). The rats were raised in a standard environment with a temperature of 24 ± 2 °C, relative humidity of 55 ± 10%, and 12 h light/12 h dark cycles. These rats were acclimatized to the environment for at least one week before the experiment, provided free access to drinking water, and fed during this period. Twenty-four SD rats, which were divided into four groups (six rats per group), received 5 mg/kg itampolin A by intravenous administration or 10, 25, and 50 mg/kg itampolin A by intragastric administration for the pharmacokinetics experiments. Twenty SD rats (five rats for each time point) received 25 mg/kg itampolin A by intragastric administration for the tissue distribution study.
The simple protein precipitation extraction technique using methanol as the precipitating solvent was applied to extract itampolin A and IS from biological samples [23, 24]. The 100 µL of plasma sample, 50 µL of IS working solution, and 200 µL of methanol were added in 500 µL microcentrifuge tubes to precipitate proteins. After vortexing for 1 min, the samples were centrifuged at 12,000 rpm for 10 min to remove the denatured protein. Subsequently, the supernatant was transferred into another tube and evaporated to dryness with a stream of nitrogen at 35 °C. The remains were reconstituted in 100 µL of initial mobile phase, briefly vortexed, and centrifuged at 12,000 rpm for 10 min. Then, 10 µL of the supernatant was transferred to sampling vials for the UHPLC-MS/MS system.
For both intragastric and intravenous administration, itampolin A was dissolved in polyethylene glycol (PEG)-saline (1:3, PEG: 380–420) for the preparation of dosing solutions. Eighteen Sprague–Dawley rats were divided into three groups randomly (six rats each). The rats of each group were weighed, and then given a single dose of 10 mg/kg, 25 mg/kg, and 50 mg/kg itampolin A via intragastric administration, respectively. Blood samples (200 µL) were obtained from orbital vein into heparinized centrifuge tubes at 0.083, 0.25, 0.5, 0.75, 1, 1.5, 2, 3, 4, 6, 8, 12, and 24 h after drug administration.
Six Sprague–Dawley rats were weighed, and then given a single dose of 5 mg/kg of itampolin A via intravenous administration. Blood samples (200 µL) were obtained from orbital vein into heparinized centrifuge tubes at 0.033, 0.083, 0.167, 0.25, 0.5, 0.75, 1, 1.5, 2, 3, 4, 8, and 12 h after drug administration. The blood samples obtained from both intragastric and intravenous administration were immediately separated by centrifugation at 12,000 rpm for 10 min, and then the supernatant plasma was gathered and stored at −20 °C prior to analysis.
The pharmacokinetic parameters were calculated by non-compartmental model using the DAS 3.2.8 software. All data were presented as mean ± SD.

[2] = Tissue distribution study in rats after intragastric administration; format: in vivo, Sprague–Dawley rats; conditions: intragastric 25 mg/kg
Description: as §1
Various tissues (heart, liver, spleen, lung, kidney, brain, intestine, and stomach) were harvested and washed with ice-cold 0.9% sodium chloride solution to remove the superficial blood. After being blotted dry with filter paper, each tissue sample weighed accurately was homogenized in 0.9% sodium chloride solution (1:5, w/v). Then, 100 µL of tissue homogenate was taken and processed further like the plasma sample.
Twenty Sprague–Dawley rats were randomly divided into four groups (five rats each) and received a single dose of 25 mg/kg of itampolin A via intragastric administration. The rats were executed by cervical dislocation at 1, 4, 8, and 12 h. Afterwards, various tissue samples, including heart, liver, spleen, lung, kidney, brain, intestine, and stomach, were collected into centrifuged tubes, and then processed with the methods described in “3.5. Sample Preparation”.

[3] = Solubility in normal saline; format: physicochemical
[4] = tested on: non-small-cell lung cancer; design: method as in doi:10.2174/1570179414666170215092631; conditions: cited from earlier work
p38α = tested on: p38α; design: method as in PMID 30642059; conditions: binding to the DFG-out conformation of p38α; cited from earlier work
[5] = Sprague-Dawley, rat, iv, i.v. 5 mg/kg, plasma, mean ± SD, n = 6
[6] = Sprague-Dawley, rat, iv, i.v. 5 mg/kg, plasma, mean ± SD
[7] = Sprague-Dawley, rat, plasma, iv, 5 mg/kg, i.v. 5 mg/kg, mean ± SD, n = 6
[8] = Sprague-Dawley, rat, plasma, po, 10 mg/kg, i.g. low dose 10 mg/kg, mean ± SD, n = 6
[9] = Sprague-Dawley, rat, plasma, po, 25 mg/kg, i.g. mid dose 25 mg/kg, mean ± SD, n = 6
[10] = Sprague-Dawley, rat, plasma, po, 50 mg/kg, i.g. high dose 50 mg/kg, mean ± SD, n = 6
[11] = Sprague-Dawley, rat, po, i.g. high dose 50 mg/kg, plasma, mean ± SD, n = 6
[12] = Sprague-Dawley, rat, po, i.g. high dose 50 mg/kg, plasma, mean ± SD
[13] = Sprague-Dawley, rat, po, i.g. low dose 10 mg/kg, plasma, mean ± SD, n = 6
[14] = Sprague-Dawley, rat, po, i.g. low dose 10 mg/kg, plasma, mean ± SD
[15] = Sprague-Dawley, rat, po, i.g. mid dose 25 mg/kg, plasma, mean ± SD, n = 6
[16] = Sprague-Dawley, rat, po, i.g. mid dose 25 mg/kg, plasma, mean ± SD
[17] = i.g. high dose 50 mg/kg, plasma, mean ± SD, n = 6
[18] = i.g. low dose 10 mg/kg, plasma, mean ± SD, n = 6
[19] = i.g. mid dose 25 mg/kg, plasma, mean ± SD, n = 6
[20] = intragastric 10, 25 and 50 mg/kg
[21] = measured within 12 h, mean ± SD, n = 5

- AUC(0-inf) [1, 5]: 2830 ± 110 ng·h/mL
- AUC(0-t) [1, 5]: 978 ± 26.2 ng·h/mL
- Cmax [1, 5]: 1340 ± 52.2 ng/mL
- clearance [1, 5]: 30 mL/min/kg
- MRT inf [1, 6]: 4.8 ± 0.3 h
- Vd ([1]; Sprague-Dawley, rat, iv, i.v. 5 mg/kg, plasma, mean ± SD, n = 6, read-out: Vd): 6.6 ± 0.4 L/kg
- k el [1, 6]: 7.5e-05 s⁻¹
- Tmax [1, 7]: 0.03 h
- half-life [1, 7]: 2.6 ± 0.2 h
- bioavailability ([1]; Sprague-Dawley, rat, plasma, oral dose 10 mg/kg vs i.v. 5 mg/kg): 18.8%
- bioavailability ([1]; Sprague-Dawley, rat, plasma, oral dose 25 mg/kg vs i.v. 5 mg/kg): 13.7%
- bioavailability ([1]; Sprague-Dawley, rat, plasma, oral dose 50 mg/kg vs i.v. 5 mg/kg): 11.2%
- Tmax [1, 8]: 1.7 ± 0.2 h
- half-life [1, 8]: 2.6 ± 0.3 h
- Tmax [1, 9]: 1.7 ± 0.2 h
- half-life [1, 9]: 2.3 ± 0.2 h
- Tmax [1, 10]: 0.9 ± 0.1 h
- half-life [1, 10]: 2.1 ± 0.2 h
- half-life ([1]; Sprague-Dawley, rat, plasma, po, 50 mg/kg, intragastric 10, 25 and 50 mg/kg, range over the three doses): 2.1 to 2.6 h
- Tmax ([1]; Sprague-Dawley, rat, plasma, po, 50 mg/kg, intragastric 10, 25 and 50 mg/kg, summary over the three doses): < 1.7 h
- AUC(0-inf) [1, 11]: 3190 ± 94.7 ng·h/mL
- AUC(0-t) [1, 11]: 2640 ± 44.6 ng·h/mL
- Cmax [1, 11]: 807 ± 36.9 ng/mL
- MRT inf [1, 12]: 3.7 ± 0.2 h
- k el [1, 12]: 9.17e-05 s⁻¹
- AUC(0-inf) [1, 13]: 1080 ± 55.8 ng·h/mL
- AUC(0-t) [1, 13]: 939 ± 34.9 ng·h/mL
- Cmax [1, 13]: 283 ± 20 ng/mL
- MRT inf [1, 14]: 4.6 ± 0.5 h
- k el [1, 14]: 7.5e-05 s⁻¹
- AUC(0-inf) [1, 15]: 1940 ± 116 ng·h/mL
- AUC(0-t) [1, 15]: 1540 ± 44.9 ng·h/mL
- Cmax [1, 15]: 412 ± 13.7 ng/mL
- MRT inf [1, 16]: 4.2 ± 0.3 h
- k el [1, 16]: 8.33e-05 s⁻¹
- CL [1, 17]: 207 ± 6.7 mL/min/kg
- Vd [1, 17]: 44.6 ± 2.8 L/kg
- CL [1, 18]: 185 ± 8.3 mL/min/kg
- Vd [1, 18]: 42.2 ± 2.9 L/kg
- CL [1, 19]: 215 ± 13 mL/min/kg
- Vd [1, 19]: 43.9 ± 1.7 L/kg
- correlation coefficient of AUC0–t versus dose (dose linearity) [1, 20]: 0.999
- correlation coefficient of AUC0–∞ versus dose (dose linearity) [1, 20]: 0.998
- correlation coefficient of Cmax versus dose (dose linearity) [1, 20]: 0.981
- concentration in the brain [2]: lower concentration in the brain
- highest concentration in intestine [2, 21]: 378.2 ± 36.8 ng/mL
- highest concentration in kidney [2, 21]: 497.7 ± 51.9 ng/mL
- highest concentration in liver [2, 21]: 418.8 ± 40.3 ng/mL
- highest concentration in lung [2, 21]: 800.6 ± 79.0 ng/mL
- highest concentration in stomach [2, 21]: 429.6 ± 27.2 ng/mL
- solubility in normal saline [3]: small
SMILES: COc1c(Br)cc(C[C@H](NC(=O)Cc2ccc(OCCCNC(C)=O)cc2)C(=O)NCCc2cc(Br)c(O)c(Br)c2)cc1Br [itampolin A, Itampolin A]
- distribution in the heart and spleen [2]: low distribution level and rapid elimination
- anticancer activity against non-small-cell lung cancer [4]: significant anticancer activity
- phospho-p38α expression (p38α): decreasing the phospho-p38α expression
